According to patent US8283353B2, “Fused ring compound and use thereof” (Takeda Pharmaceutical Company Limited, priority 2009, dated 2012):

How the values were obtained:
human AT1 receptor = molecular target: T1, human AT1 receptor (Homo sapiens, UniProt P30556); experiment: AT1 receptor antagonistic activity: [125I]-angiotensin II binding assay on human AT1 receptor-expressing CHO-K1 cellular membrane fraction; settings: 22.5 pM [125I]-angiotensin II, 1 hr room temperature
T1 construct: expressed in transfected cells; membrane fraction
T1 sequence (P30556 1-359): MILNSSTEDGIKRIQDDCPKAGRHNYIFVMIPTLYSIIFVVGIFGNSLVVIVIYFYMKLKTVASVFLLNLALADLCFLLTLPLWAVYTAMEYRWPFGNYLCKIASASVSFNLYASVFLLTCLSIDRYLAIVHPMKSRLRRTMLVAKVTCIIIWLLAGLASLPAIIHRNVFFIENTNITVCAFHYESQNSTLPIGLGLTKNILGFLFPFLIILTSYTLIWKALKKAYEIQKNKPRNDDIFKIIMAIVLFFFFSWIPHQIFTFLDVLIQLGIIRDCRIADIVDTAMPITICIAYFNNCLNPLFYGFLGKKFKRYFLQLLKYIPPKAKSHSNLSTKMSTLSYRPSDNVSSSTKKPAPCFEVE
Method: CHO-K1 cell (RIKEN, Japan) capable of stable expression of human AT1 receptor was cultured, recovered, suspended in homogenize buffer (10 mM NaHCO3 (pH 7.4), 5 mM EDTA, 1× Complete EDTA free) [manufactured by Roche, Switzerland], and homogenized. The homogenate was centrifuged at low-speed (900×g, 10 min, 4° C.), and the supernatant was recovered and ultracentrifuged (90,000×g, 1 hr, 4° C.). The supernatant was discarded, and the pellets were resuspended in suspension buffer (50 mM Tris (pH 7.4), 1 mM EDTA, 1× Complete EDTA free).
(9 μg) in the presence of AT1 membrane and test compound in 100 μl, (total reaction volume) of reaction buffer (50 mM Tris (pH 7.4), 10 mM MgCl2 supplemented or not supplemented with 0.3 mg/mL fatty acid-free bovine serum albumin [manufactured by Wako Pure Chemical Industries, Ltd., Japan]). The reaction mixture was incubated in 96 well polypropylene plate for 1 hr at room temperature, and the reaction was quenched by rapid filtration (96 well cell harvester) through a GF/C filter treated with wash buffer (50 mM Tris (pH 7.4)). Subsequently, the filter was washed 5 times with 0.3 mL of ice-cooled wash buffer. […] Total binding was measured in the presence of 1% DMSO and nonspecific binding was measured in the presence of […] Candesartan.

human PPARγ = molecular target: T2, human PPARγ (Homo sapiens, UniProt P37231); experiment: PPARγ agonistic activity: luciferase reporter assay in PPARγ:RXRα:4ERPP/CHO-K1 cells; format: cell-based; settings: CHO-K1, test compound 10^−6 M; luciferase activity of control compound X (1 μM) = 100%, non-administration group = 0%
T2 construct: expressed in transfected cells
T2 sequence (P37231 1-477 isoform P37231-2): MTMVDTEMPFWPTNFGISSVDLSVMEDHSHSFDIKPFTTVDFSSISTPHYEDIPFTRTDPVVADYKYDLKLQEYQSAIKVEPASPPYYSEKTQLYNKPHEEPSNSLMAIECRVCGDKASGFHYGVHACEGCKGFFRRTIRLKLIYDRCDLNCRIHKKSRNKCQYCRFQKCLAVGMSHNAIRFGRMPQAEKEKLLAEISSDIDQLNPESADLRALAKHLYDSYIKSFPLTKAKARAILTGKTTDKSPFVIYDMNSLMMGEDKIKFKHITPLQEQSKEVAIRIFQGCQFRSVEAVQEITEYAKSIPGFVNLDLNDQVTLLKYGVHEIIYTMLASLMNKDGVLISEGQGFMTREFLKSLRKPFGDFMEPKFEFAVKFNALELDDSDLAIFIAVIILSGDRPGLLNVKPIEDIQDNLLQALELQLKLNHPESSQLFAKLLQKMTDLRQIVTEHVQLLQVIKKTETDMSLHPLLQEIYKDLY
T2 sequence (P19793 1-462 partner): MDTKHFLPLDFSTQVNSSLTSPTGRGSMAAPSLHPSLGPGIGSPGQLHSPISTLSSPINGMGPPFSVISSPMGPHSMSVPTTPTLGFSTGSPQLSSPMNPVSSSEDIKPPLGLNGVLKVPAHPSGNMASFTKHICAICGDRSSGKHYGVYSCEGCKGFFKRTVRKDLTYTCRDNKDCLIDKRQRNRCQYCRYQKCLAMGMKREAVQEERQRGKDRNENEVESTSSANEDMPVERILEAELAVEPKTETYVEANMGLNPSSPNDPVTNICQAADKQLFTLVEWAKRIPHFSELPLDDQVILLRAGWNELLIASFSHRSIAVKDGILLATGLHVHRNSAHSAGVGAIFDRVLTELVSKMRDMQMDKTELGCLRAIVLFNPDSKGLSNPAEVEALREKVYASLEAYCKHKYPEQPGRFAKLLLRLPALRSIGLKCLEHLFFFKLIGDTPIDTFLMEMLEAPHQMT
Excerpt: A CHO-K1 cell cultured in a 150 cm^2 cell culture flask [manufactured by Corning Costar Corporation, USA] comprising Ham's F12 medium [manufactured by INVITROGEN, USA] supplemented with 10% fetal bovine serum [manufactured by INVITROGEN, USA] was taken off by treating with 0.5 g/L trypsin-0.2 g/L EDTA (ethylenediamine tetraacetate) [manufactured by Life Technologies, Inc., USA], and then the cell was washed with PBS (Phosphate-buffered saline) [manufactured by INVITROGEN, USA], centrifuged (1000 rpm, 5 minutes) and suspended in PBS. Subsequently, DNA was introduced into the cell under the conditions shown below using GENE PULSER [manufactured by Bio-Rad Laboratories, USA].
Namely, to a cuvette having a 0.4 cm gap were added 8×10^6 cells and 10 μg of plasmid pVgRXR2-hPPARγ obtained in the above-mentioned (4) and 10 μg of reporter plasmid pGL3-4ERPP-TK neo obtained in the above-mentioned (3), which was subjected to electroporation at the voltage of 0.25 kV under the capacitance of […] Subsequently, the cell was transferred into a F12 medium comprising 10% fetal bovine serum and cultured for 24 hours, and then the cell was taken off again and centrifuged. Then, the pellet was suspended in Ham's F12 medium comprising 10% fetal bovine serum supplemented with 500 μg/ml of Geneticin [manufactured by INVITROGEN, USA] and 250 μg/ml of Zeocin [manufactured by INVITROGEN, USA]. The obtained suspension was diluted to the density of 10^4 cells/ml and inoculated in a 96-well plate [manufactured by Corning Costar Corporation, USA], which was cultured in a CO2 gas incubator at 37° C., whereby obtaining a Geneticin- and Zeocin-resistant transformant.
Subsequently, after the transformed cell line thus obtained was cultured in a 24-well plate [manufactured by Corning Costar Corporation, USA], a cell line in which expression of the luciferase was induced, i.e., PPARγ:RXRα:4ERPP/CHO-K1 cell was selected by the addition of 10 μM pioglitazone hydrochloride.
PPARγ:RXRα:4ERPP/CHO-K1 cells obtained in the above-mentioned (5) were cultured in F12 medium [manufactured by INVITROGEN, USA] containing 10% fetal bovine serum [manufactured by MOREGATE, Australia], seeded in a 96 well half-area white plate [manufactured by Corning Coster Corporation, USA] at 5×10^3 cells/well, and cultured in a CO2 incubator at 37° C. overnight.
Then, the medium was removed from the 96 well half-area white plate, hamF12 medium containing 0.1% fatty acid-free bovine serum albumin (BSA) (45 μl) and a test compound (5 μl) were added, and the mixture was cultured in the CO2 incubator at 37° C. for 1 day. After removing the medium, Picagene 7.5 [manufactured by Dai Nippon Inki, Japan] (20 μl) diluted 2-fold with HBSS (HANKS' BALANCED SALT SOLUTION) [manufactured by BIO […], USA] was added, and the mixture was stirred. Using 1420 ARVO Multilabel Counter [manufactured by PerkinElmer, USA], luciferase activity was measured. The percentage (%) was calculated from the luciferase activity of the test compound when the luciferase activity of the control compound (compound X: 5-[3-(4-{[2-(2-furyl)-5-methyl-1,3-oxazol-4-yl]methoxy}-3-methoxyphenyl)propyl]-1,3-oxazolidine-2,4-dione) (1 μM) was taken as 100% and the luciferase activity of the test compound non-administration group was taken as 0%.

CCCc1c(Cc2ccc(-c3ccccc3-c3noc(=O)[nH]3)cc2)c(=O)n([C@H]2CC[C@H](OCC(O)C(F)(F)F)CC2)c2ccnn12 (relative stereo) [Example 428, 6-{[2′-(5-oxo-4,5-dihydro-1,2,4-oxadiazol-3-yl)biphenyl-4-yl]methyl}-7-propyl-4-[trans-4-(3,3,3-trifluoro-2-hydroxypropoxy)cyclohexyl]pyrazolo[1,5-a]pyrimidin-5(4H)-one]
IC50 (human AT1 receptor): 1.9 nM
activation at 1 µM (human PPARγ): 27%

CCCCc1c(Cc2ccc(-c3ccccc3-c3noc(=O)[nH]3)cc2)c(=O)n([C@H]2CC[C@H](OCC(C)O)CC2)c2ccnn12 (relative stereo) [Example 436, 7-butyl-4-[trans-4-(2-hydroxypropoxy)cyclohexyl]-6-{[2′-(5-oxo-4,5-dihydro-1,2,4-oxadiazol-3-yl)biphenyl-4-yl]methyl}pyrazolo[1,5-a]pyrimidin-5(4H)-one]
IC50 (human AT1 receptor): 1.8 nM
activation at 1 µM (human PPARγ): 32%

CCCc1c(Cc2ccc(-c3ccccc3-c3noc(=O)[nH]3)cc2F)c(=O)n([C@H]2CC[C@H](OCC(C)O)CC2)c2ccnn12 (relative stereo) [Example 437, 6-{[3-fluoro-2′-(5-oxo-4,5-dihydro-1,2,4-oxadiazol-3-yl)biphenyl-4-yl]methyl}-4-[trans-4-(2-hydroxypropoxy)cyclohexyl]-7-propylpyrazolo[1,5-a]pyrimidin-5(4H)-one]
IC50 (human AT1 receptor): 1.6 nM
activation at 1 µM (human PPARγ): 30%

CCCc1c(Cc2ccc(-c3ccccc3-c3noc(=O)[nH]3)cc2)c(=O)n([C@H]2CC[C@H](OC(C)C(C)(C)O)CC2)c2ncnn12 (single isomer, unassigned) [Example 319, 4-[trans-4-(2-hydroxy-1,2-dimethylpropoxy)cyclohexyl]-6-{[2′-(5-oxo-4,5-dihydro-1,2,4-oxadiazol-3-yl)biphenyl-4-yl]methyl}-7-propyl[1,2,4]triazolo[1,5-a]pyrimidin-5(4H)-one (retention time: long)]
IC50 (human AT1 receptor): 2 nM
activation at 1 µM (human PPARγ): 16%

CCCc1c(Cc2ccc(-c3ccccc3-c3noc(=O)[nH]3)cc2)c(=O)n(CC(C)(C)C)c2nc(C)nn12 [Example 2, 4-(2,2-dimethylpropyl)-2-methyl-6-{[2′-(5-oxo-4,5-dihydro-1,2,4-oxadiazol-3-yl)biphenyl-4-yl]methyl}-7-propyl[1,2,4]triazolo[1,5-a]pyrimidin-5(4H)-one]
IC50 (human AT1 receptor): 1.3 nM
activation at 1 µM (human PPARγ): 18%

CCCc1c(Cc2ccc(-c3ccccc3-c3noc(=O)[nH]3)cc2)c(=O)n(Cc2ccc(F)cc2)c2ncnn12 [Example 4, 4-(4-fluorobenzyl)-6-{[2′-(5-oxo-4,5-dihydro-1,2,4-oxadiazol-3-yl)biphenyl-4-yl]methyl}-7-propyl[1,2,4]triazolo[1,5-a]pyrimidin-5(4H)-one]
IC50 (human AT1 receptor): 2.6 nM
activation at 1 µM (human PPARγ): 39%

CCCc1c(Cc2ccc(-c3ccccc3-c3noc(=O)[nH]3)cc2)c(=O)n(Cc2ccc(F)cc2)c2nc(C)nn12 [Example 5, 4-(4-fluorobenzyl)-2-methyl-6-{[2′-(5-oxo-4,5-dihydro-1,2,4-oxadiazol-3-yl)biphenyl-4-yl]methyl}-7-propyl[1,2,4]triazolo[1,5-a]pyrimidin-5(4H)-one]
IC50 (human AT1 receptor): 1.7 nM
activation at 1 µM (human PPARγ): 18%

CCCc1c(Cc2ccc(-c3ccccc3-c3noc(=O)[nH]3)cc2)c(=O)n(Cc2ccc(CC)nc2)c2nc(C)nn12 [Example 7, 4-[(6-ethylpyridin-3-yl)methyl]-2-methyl-6-{[2′-(5-oxo-4,5-dihydro-1,2,4-oxadiazol-3-yl)biphenyl-4-yl]methyl}-7-propyl[1,2,4]triazolo[1,5-a]pyrimidin-5(4H)-one]
IC50 (human AT1 receptor): 2.4 nM
activation at 1 µM (human PPARγ): 26%

CCCc1c(Cc2ccc(-c3ccccc3-c3noc(=O)[nH]3)cc2)c(=O)n(CC(C)(C)C)c2ncnn12 [Example 9, 4-(2,2-dimethylpropyl)-6-{[2′-(5-oxo-4,5-dihydro-1,2,4-oxadiazol-3-yl)biphenyl-4-yl]methyl}-7-propyl[1,2,4]triazolo[1,5-a]pyrimidin-5(4H)-one]
IC50 (human AT1 receptor): 2.1 nM
activation at 1 µM (human PPARγ): 17%

CCCc1c(Cc2ccc(-c3ccccc3-c3noc(=O)[nH]3)cc2)c(=O)n(CC(=O)C(C)(C)C)c2ncnn12 [Example 10, 4-(3,3-dimethyl-2-oxobutyl)-6-{[2′-(5-oxo-4,5-dihydro-1,2,4-oxadiazol-3-yl)biphenyl-4-yl]methyl}-7-propyl[1,2,4]triazolo[1,5-a]pyrimidin-5(4H)-one]
IC50 (human AT1 receptor): 1.8 nM
activation at 1 µM (human PPARγ): 18%

CCCCc1c(Cc2ccc(-c3ccccc3-c3noc(=O)[nH]3)cc2)c(=O)n(C2CCOC(C)C2)c2ncnn12 (stereo not drawn) [Example 161, 7-butyl-4-(2-methyltetrahydro-2H-pyran-4-yl)-6-{[2′-(5-oxo-4,5-dihydro-1,2,4-oxadiazol-3-yl)biphenyl-4-yl]methyl}[1,2,4]triazolo[1,5-a]pyrimidin-5(4H)-one]
IC50 (human AT1 receptor): 1.2 nM
